Tests used:
[1] = test system: carrageenin-induced paw oedema; test: Determination of ID50, carrageenin-induced paw oedema; type: in vivo, rat; conditions: five times the oral ID50 for oedema inhibition, 2 h after carrageenin
Method: ID50, relative to the products under examination (considered in table 1), has been evaluated using the anti-inflammatory response to carrageenin-induced paw oedema (according to Wong et al, J Pharmacol Exp, 1973:1855; pages 127-138). The products, suspended in 1% CMC, were administered orally in a total volume of 5 ml/rat. 1 h later, 0.1 ml of 1% carrageenin sterile solution was injected into the hind subplantar aponeurosis. Volume of the paw was measured immediately prior to injection of the phlogogen and 2 h thereafter, by means of a plethysmograph. The percentage of inhibition of oedema was calculated as follows: 1 - ΔV treated/ΔV control x 100 [formula] where ΔV = final V - initial V.

[2] = test system: isolated, perfused, immature rat stomach; test: Antisecretive activity in vitro, isolated perfused immature rat stomach; conditions: for Δacid: mean±S.E.
Text: Male Wistar rats, 250±10 g b.w. (Charles River, Calco, Como, Italy), quarantined for five days prior to the beginning of the trial and divided into groups of 3 animals per cage, were used for determination of gastric lesions and of ID50 determination. Immature male Wistar rats, 30-45 g b.w. (Harlan Nossan, Milano) were used for the determination of the antisecretory effect on isolated rat stomach. The guinea-pigs used were the Dunkin Hartley guinea-pigs (Harlan Nossan, Milano, Italy).
At the beginning, the isolated, perfused, immature rat stomach, treated externally with the study product, was used. We preferred to use the isolated stomach in toto rather than strips (B.R. No. 18, 19 and 20) in order not to exclude a section of the stomach (the antrum), unimportant for acid secretion but very important for the secretion of bicarbonates and bioactive peptides (b.r. No. 21, 22). The results were encouraging, since amtolmetin guacyl inhibited acid production stimulated by the three classic agonists (histamine, acetilcholine and gastrin) both using varying doses of agonist or varying doses of amtolmetin guacyl (Table 5).
The results are expressed as mean±S.E.

[3] = test system: fertility, embriotoxicity and teratogenicity; test: Fertility, embryotoxicity and teratogenicity studies, rabbit; type: in vivo
human lymphocites = test: Chromosome aberrations in lymphocytes cultivated in vitro; type: cell-based
H2 receptors = target: T1, H2 receptors (Cavia porcellus, UniProt P47747); test: Effect on H2 receptors of isolated atrium, histamine stimulation; conditions: guinea-pig atrium, stimulation by histamine (fig. 5)
T1 construct: an organ in which only H2 receptors were present (guinea-pig atrium); from tissue; host or cells: guinea-pig atrium (isolated organ)
Text: On the basis of the above series of observations, we decided to study the pharmacological behaviour of a number of widely used NSAIDs (including amtolmetin guacyl) towards the gastric mucosa in the rat, as previously described. […] The first hypothesis was that we were deling with an anti-H2 drug, given the fact that its potency could be compared with that of cimetidine.

[4] = test system: guinea-pig isolated ileum; test: Intestinal motility in isolated ileum, various agonists; conditions: all of the traditional agonists: histamine, acetylcholine, serotonin (fig. 7, 8 and 9)
Text: In parallel we also studied the possible effect on intestinal motility in the guinea-pig isolated ileum (b.r. No. 29) using various agonists (fig. 7, 8 and 9).

adverse events = test: Clinical trials: tolerability, adverse events and suspensions of treatment; set-up: species or system man; conditions: in vivo
Text: Interest in the amtolmetin guacyl molecule arose following a thorough analysis of the results of 31 comparative and 6 non-comparative clinical trials involving 1596 patients. […] Turthermore the physician, being aware of administering an NSAID, was expecting adverse events and could not be expected to be an impartial observer. The few cases of gastro-intestinal phenomena reported with amtolmetin guacyl were transitory and in no event accompanied by the presence of occult blood in the stools. Moreover, even in the presence of a reported side-effect it was almost never necessary to suspend treatment (0.4% of suspensions).
Following are summarized the results obtained on a total of 1596 patients in 37 clinical trials.
Confirmation of the above described advantages is the very low incidence of treatment suspension for adverse events found in clinics (Table 17), which is not the case for most of NSAIDs known in the art (Table 18).

[5] = test system: extra-articular rheumatism; test: Clinical trials: antiphlogistic activity in extra-articular rheumatism; type: in vivo, man; set-up: key: excellent ^++++; good ^+++; poor ^++
Text: In extra-articular rheumatism amtolmetin guacyl was compared with diclofenac, naproxen and piperazine propionate.

COX1 (cyclooxygenase 1) = target: T2, COX1 (cyclooxygenase 1) (Rattus norvegicus, UniProt Q63921); test: Pharmacological studies in rats: COX1 inhibition; type: in vivo; conditions: studies conducted in rats
T2 construct: from tissue; host or cells: rat (in vivo pharmacological studies; tissue not given)

gastric lesions = test: Clinics with before/after endoscopies; type: in vivo, man; conditions: especially when administered on an empty stomach
basal acid secretion = test: Basal acid secretion; conditions: amtolmetin guacyl per se
gastric mucosa = test: Histological evaluation of the gastric mucosa by an independent laboratory; conditions: oral gavage: amtolmetin guacyl 50 mg/kg, diclofenac 7.5 mg/kg, tolmetin 66.6 mg/kg
Method: In order to obtain a histological evaluation of the results obtained in our laboratories, an independent laboratory was provided with identical samples of the material evaluated by us, under totally blind conditions.
Controls received the vehicle only, also by oral gavage. 4 h after the final administration the animals were killed by ether overdose and the stomachs removed, rinsed in saline and immersed in formalin 4%.

[6] = agonist Acetylcholine 10^-3 M, antagonist 10^-4 M
[7] = agonist Gastrin 6x10^-7 M, antagonist 10^-4 M
[8] = agonist Histamine 10^-3 M, antagonist 10^-4 M
[9] = agonist Histamine 10^-4 M, antagonist 10^-4 M
[10] = agonist Histamine 10^-4 M, antagonist 10^-5 M

T2 sequence (Q63921 27-602): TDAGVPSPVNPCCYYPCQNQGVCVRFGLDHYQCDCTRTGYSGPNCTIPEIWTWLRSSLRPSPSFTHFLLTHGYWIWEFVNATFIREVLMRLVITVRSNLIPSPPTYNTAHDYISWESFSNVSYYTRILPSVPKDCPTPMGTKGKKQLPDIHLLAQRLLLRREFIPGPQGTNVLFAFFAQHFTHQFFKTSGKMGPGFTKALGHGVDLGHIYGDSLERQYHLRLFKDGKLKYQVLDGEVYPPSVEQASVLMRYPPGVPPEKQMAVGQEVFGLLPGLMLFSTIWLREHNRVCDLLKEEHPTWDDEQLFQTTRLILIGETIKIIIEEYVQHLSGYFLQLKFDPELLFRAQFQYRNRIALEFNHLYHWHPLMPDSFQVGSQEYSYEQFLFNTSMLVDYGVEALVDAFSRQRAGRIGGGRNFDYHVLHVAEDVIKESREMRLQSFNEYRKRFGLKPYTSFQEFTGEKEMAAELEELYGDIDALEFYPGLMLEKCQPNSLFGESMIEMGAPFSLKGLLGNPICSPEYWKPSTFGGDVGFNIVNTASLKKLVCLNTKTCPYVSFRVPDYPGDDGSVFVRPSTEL
T1 sequence (P47747 whole entry): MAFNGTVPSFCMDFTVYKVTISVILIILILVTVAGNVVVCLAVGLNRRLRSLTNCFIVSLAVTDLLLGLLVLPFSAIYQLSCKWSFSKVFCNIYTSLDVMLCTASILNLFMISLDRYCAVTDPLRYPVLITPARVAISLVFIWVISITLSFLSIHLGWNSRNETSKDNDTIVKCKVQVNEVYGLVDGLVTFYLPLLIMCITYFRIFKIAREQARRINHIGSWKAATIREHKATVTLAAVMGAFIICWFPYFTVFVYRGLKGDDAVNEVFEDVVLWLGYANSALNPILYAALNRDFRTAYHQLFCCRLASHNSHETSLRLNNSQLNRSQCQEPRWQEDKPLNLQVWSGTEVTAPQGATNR

COc1ccccc1OC(=O)CNC(=O)Cc1ccc(C(=O)c2ccc(C)cc2)n1C [amtolmetin guacyl, 2-methoxyphenyl-1-methyl-5p-methylbenzoylpyrrol-2-acetamido acetate]
Ratio to rat dosage (mg/kg) (ID50 mg/kg x5) [1]: 100 mg/kg
% inhib. [2, 6]: 21.5%
Δacid [2, 6]: 71.2 ± 5.4 nmol/min
% inhib. [2, 7]: 52.1%
Δacid [2, 7]: 30.7 ± 3.7 nmol/min
% inhib. [2, 8]: 57.7%
Δacid [2, 8]: 17.9 ± 2.1 nmol/min
% inhib. [2, 9]: 62.6%
Δacid [2, 9]: 19.2 ± 5.4 nmol/min
% inhib. [2, 10]: 68.7%
Δacid [2, 10]: 16.1 ± 5.4 nmol/min
fertility, embriotoxicity and teratogenicity [3]: demonstrated the safety product
chromosomic aberrations (human lymphocites): absence of amtolmetin guacyl-related damage
interference with the H2 receptors (H2 receptors): did not interfere with the H2 receptors
intestinal motility [4]: decrease in motility
Treatment suspended % (adverse events; human): 0,4%
suspensions of treatment (adverse events; human): 0.4%
variations of the routine biological parameters (adverse events): no significant variations of the routine biological parameters were observed
Antiphlogistic activity evaluation [5]: ^+++
inhibition of COX1 (COX1 (cyclooxygenase 1)): inhibition
induction of gastric lesions (gastric lesions): not to induce gastric lesions
effect on basal acid secretion (basal acid secretion): fails to modify basal acid secretion
Histology (gastric mucosa): no histological lesions
Macroscopic findings (gastric mucosa; single animals): 0
Microscopic findings (gastric mucosa; single animals): 0

From EP1310250A1, “Use of the compound 2-methoxyphenyl-1-methyl-5P-methylbenzoyl-pyrrol-2-acetamido acetate for the production of an antiinflammatory drug with prevention of gastric hypersecretion and renal impairment” (MEDOSAN Ricerca S.r.l., priority 1997, dated 1999)
